One series concerns CYP1A2. To be noted: higher concentrations; range over the named compounds and enzymes.
The conditions of series [1]: XueBiJing compounds; cited from earlier work.
For the next series, the system named is CYP3A4. To be noted: higher concentrations; range over the named compounds and enzymes.
The conditions of series [2]: cited from earlier work.
For a further series, the target named is T1, OAT3 (Homo sapiens, UniProt Q8TCC7).
T1 sequence (Q8TCC7 1-542): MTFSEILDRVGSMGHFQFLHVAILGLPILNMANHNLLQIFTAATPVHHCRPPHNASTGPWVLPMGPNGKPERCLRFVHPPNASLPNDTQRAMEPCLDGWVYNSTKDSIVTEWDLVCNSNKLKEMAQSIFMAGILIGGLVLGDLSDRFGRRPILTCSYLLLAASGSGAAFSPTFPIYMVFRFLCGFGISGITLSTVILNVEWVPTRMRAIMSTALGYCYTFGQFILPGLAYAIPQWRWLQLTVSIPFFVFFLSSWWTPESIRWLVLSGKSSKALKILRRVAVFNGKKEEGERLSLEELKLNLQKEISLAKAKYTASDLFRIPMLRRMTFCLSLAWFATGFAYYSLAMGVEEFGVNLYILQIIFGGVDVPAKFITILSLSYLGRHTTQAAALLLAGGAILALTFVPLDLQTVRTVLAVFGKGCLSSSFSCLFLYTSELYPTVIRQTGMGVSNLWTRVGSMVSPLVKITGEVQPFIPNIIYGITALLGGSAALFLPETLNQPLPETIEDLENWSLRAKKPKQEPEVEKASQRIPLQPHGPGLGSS
It counts as in vitro ADME.

For series [3] the following is noted: ref Supporting Information Table S2; cited from earlier work.
For series [4], the system named is human drug metabolizing enzymes and transporters. In words: Inhibitory DDI index of XueBiJing compounds as perpetrators. To be noted: XueBiJing at label dose; range over the named compounds.
Series [5] is classed as in vivo. To be noted: human; XueBiJing at label dose 100 mL.
For series [6] the following is noted: XueBiJing compounds, cited from earlier work.
Setting [7] is: human, XueBiJing 100 mL via 75-min intravenous infusion.

For `O=C(O)c1ccc(O)c(O)c1` [X11, protocatechuic acid], in the series on CYP1A2, the “mRNA-T/U ratio, CYP1A2” value lay within 4.0 to 9.6. In addition, in [1], the Membrane permeability result is recorded as “Intermediate”. The “mRNA-T/U ratio, CYP3A4” value in the series with CYP3A4 is 4.0 to 9.6. In addition, the “fu-p (unbound fraction in plasma)” value in series [2] (human plasma) is 79%. Moreover, in series [2] (setting [7]), the Cmax is 40 nM and the t1/2 is 30 min. Also, the Major elimination route entry in [2] (human) was “Hepatic methylation and sulfation”. On OAT3, this molecule yielded a 50% inhibitory concentration (IC50) of 28 ± 7 µM. For the same molecule, the “Effective concentration(s)” value in [3] was 1 to 130 µmol/L. In addition, the “DDI index for inhibition of CYP2C9, CYP2C19, OATP1B1, OATP1B3, OAT1 and/or OAT3” value in [4] was 0.00003–0.06. Moreover, the “Unbound Cmax” value in series [5] was found to be 30 nM. The pKa in series [6] is reported as 4.5. Besides, in [6] (pH 7.4), the “LogD(7.4)” value was −1.9.

Usually Cmax stands for the maximum level reached in the sampled fluid or tissue. Broadly, the IC50 is the concentration at which inhibition is half-maximal. For orientation: pKa means the pH at which an ionisable group is half protonated.

The values above are taken from publication PMC6804443 (Acta Pharmaceutica Sinica. B, 2019).
